Results published in patent US20020026053A1, “Novel 3-(substituted) -2- indolinones compounds and use thereof as inhibitors of protein kinase activity” (priority 1997, published 2002).
Values joined by “and” are separate entries in the source; they are usually repeats but may differ in a detail not shown here. Equal values may be shown once.

Molecular target: T1, Met receptor (EGFR/Met chimeric cells, EMR) (Homo sapiens, UniProt P08581)
T1 construct: expressed in transfected cells; the other entry of the earlier key: EGFR (P00533, Epidermal growth factor receptor)
Experiment: Met Autophosphorylation Assay
Format: biochemical
Details: not given
Summary of the method: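 Met phosphorylation was measured by capture ELISA. Lysates (90 μg/100 μl, HNTG plus 1 mM PMSF) from transiently transfected EGFR/Met chimera (EMR) cells were bound for 60 min at room temperature to wells holding rabbit anti-Met (C-28) on goat anti-rabbit coat. Phosphotyrosine was the read-out.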

T1 sequence (P08581 with tags, fused parts or gaps): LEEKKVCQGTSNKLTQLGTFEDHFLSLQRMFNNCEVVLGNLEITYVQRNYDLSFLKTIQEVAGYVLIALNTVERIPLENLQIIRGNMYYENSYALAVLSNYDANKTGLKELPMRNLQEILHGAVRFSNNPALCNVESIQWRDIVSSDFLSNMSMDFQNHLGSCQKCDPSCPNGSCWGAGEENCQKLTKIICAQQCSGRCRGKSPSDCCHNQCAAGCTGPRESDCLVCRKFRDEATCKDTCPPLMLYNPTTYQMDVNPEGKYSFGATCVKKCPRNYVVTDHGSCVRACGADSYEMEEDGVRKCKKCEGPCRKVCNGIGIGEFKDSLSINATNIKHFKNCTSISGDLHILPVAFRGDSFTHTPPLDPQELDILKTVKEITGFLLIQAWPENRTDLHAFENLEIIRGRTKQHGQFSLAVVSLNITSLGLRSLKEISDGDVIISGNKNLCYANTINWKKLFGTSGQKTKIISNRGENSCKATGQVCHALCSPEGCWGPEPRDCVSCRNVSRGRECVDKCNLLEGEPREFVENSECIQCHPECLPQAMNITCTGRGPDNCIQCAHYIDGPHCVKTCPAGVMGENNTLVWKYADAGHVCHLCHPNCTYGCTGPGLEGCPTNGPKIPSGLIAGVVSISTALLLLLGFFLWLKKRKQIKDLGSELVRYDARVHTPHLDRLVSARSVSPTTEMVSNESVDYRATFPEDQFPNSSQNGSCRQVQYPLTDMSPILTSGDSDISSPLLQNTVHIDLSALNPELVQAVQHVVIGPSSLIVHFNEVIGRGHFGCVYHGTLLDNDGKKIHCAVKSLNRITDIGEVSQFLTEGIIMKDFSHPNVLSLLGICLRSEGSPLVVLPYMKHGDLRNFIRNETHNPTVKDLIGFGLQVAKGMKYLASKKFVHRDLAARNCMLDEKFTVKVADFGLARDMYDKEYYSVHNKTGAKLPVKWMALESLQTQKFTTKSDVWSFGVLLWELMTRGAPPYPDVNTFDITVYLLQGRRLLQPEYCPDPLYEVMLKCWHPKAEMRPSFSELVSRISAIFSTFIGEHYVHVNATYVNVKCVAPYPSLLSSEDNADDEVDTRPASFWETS

Row | Compound | Met Kinase % Inhibition (P.130)
1 | CCOc1ccccc1C=C1C(=O)Nc2c(Br)cc(Br)c(C)c21 [10717/H02] | 44.5%
2 | Cc1c(Br)cc(Br)c2c1C(=Cc1cccs1)C(=O)N2 [10717/H03] | 18.3%
3 | Cc1c(Br)cc(Br)c2c1C(=Cc1cccn1C)C(=O)N2 [10717/H04] | 14.0%
4 | COc1ccc(C=C2C(=O)Nc3c(Br)cc(Br)c(C)c32)cc1OC [10720/H04] | 21.3%
5 | Cc1c(Br)cc(Br)c2c1C(=Cc1ccccc1O)C(=O)N2 [10720/H05] | 51.0%
6 | Cc1c(Br)cc(Br)c2c1C(=Cc1ccccc1)C(=O)N2 [10720/H06] | 24.4%
7 | CSc1ccc(C=C2C(=O)Nc3c(Br)cc(Br)c(C)c32)s1 [10720/H07] | 10.8%
8 | Cc1cc(O)cc(O)c1C=C1C(=O)Nc2c(Br)cc(Br)c(C)c21 [10720/H08] | 40.0%
9 | CCOc1cc(C=C2C(=O)Nc3c(Br)cc(Br)c(C)c32)ccc1O [10720/H09] | 49.0%
10 | COc1ccc(O)c(C=C2C(=O)Nc3c(Br)cc(Br)c(C)c32)c1 [10720/H10] | 48.2%
11 | Cc1c(Br)cc(Br)c2c1C(=Cc1ncc[nH]1)C(=O)N2 [10720/H11] | 28.0%
12 | Cc1c(Br)cc(Br)c2c1C(=Cc1nc3ccccc3n1C)C(=O)N2 [10721/H02] | 39.7%
13 | Cc1c(Br)cc(Br)c2c1C(=Cc1nn(C)cc1Cl)C(=O)N2 [10721/H03] | 21.3%
14 | Cc1cc(C=C2C(=O)Nc3c(Br)cc(Br)c(C)c32)sc1C [10721/H04] | 72.9%
15 | Cc1c(Br)cc(Br)c2c1C(=Cc1cc3c([nH]1)CCCC3)C(=O)N2 [10721/H05] | 33.6%
16 | Cc1c(Br)cc(Br)c2c1C(=Cc1cc([N+](=O)[O-])cc(CCl)c1O)C(=O)N2 [10721/H06] | 90.3%
17 | Cc1c(Br)cc(Br)c2c1C(=Cc1ccc(Cl)s1)C(=O)N2 [10721/H07] | 10.4%
18 | Cc1cc(C)c(C=C2C(=O)Nc3c(Br)cc(Br)c(C)c32)[nH]1 [10721/H08] | 42.5%
19 | Cc1c(Br)cc(Br)c2c1C(=Cc1ccc(O)c(C(C)(C)C)c1)C(=O)N2 [10721/H09] | 36.7%
20 | Cc1c(Br)cc(Br)c2c1C(=Cc1cc(Br)c(O)c(C(C)(C)C)c1)C(=O)N2 [10721/H10] | 46.9%
21 | Cc1c(Br)cc(Br)c2c1C(=Cc1cc(C(C)(C)C)c(O)c(C(C)(C)C)c1)C(=O)N2 [10721/H11] | 46.0%
22 | Cc1c(Br)cc(Br)c2c1C(=Cc1cc([N+](=O)[O-])c(O)c(C(C)(C)C)c1)C(=O)N2 [10722/H02] | 37.8%
23 | Cc1c(Br)cc(Br)c2c1C(=Cc1c(O)cc(O)cc1O)C(=O)N2 [10722/H03] | 100.5%

Row | Compound | Met Kinase % Inhibition (P.130)
24 | Cc1c(Br)cc(Br)c2c1C(=Cc1ccc([N+](=O)[O-])s1)C(=O)N2 [10722/H04] | 62.2%
25 | Cc1c(Br)cc(Br)c2c1C(=Cc1ccc(C(=O)O)cc1)C(=O)N2 [10722/H05] | 83.2%
26 | Cc1c(Br)cc(Br)c2c1C(=Cc1ccc(F)cc1F)C(=O)N2 [10722/H06] | 70.3%
27 | Cc1cc(C=C2C(=O)Nc3c(Br)cc(Br)c(C)c32)cc(C)c1O [10722/H07] | 51.0%
28 | Cc1c(Br)cc(Br)c2c1C(=Cc1cc(Cl)c(O)c(C(C)(C)C)c1)C(=O)N2 [10722/H08] | 72.6%
29 | Cc1c(Br)cc(Br)c2c1C(=Cc1csc([N+](=O)[O-])c1)C(=O)N2 [10722/H09] | 67.6%
30 | CCCCN(CCCC)c1ccc(C=C2C(=O)Nc3c(Br)cc(Br)c(C)c32)cc1 [10722/H10] | 30.3%
31 | Cc1c(Br)cc(Br)c2c1C(=Cc1ccc(C(F)(F)F)cc1)C(=O)N2 [10722/H11] | 66.1%
32 | Cc1c(Br)cc(Br)c2c1C(=Cc1ccc(O)c(O)c1O)C(=O)N2 [10723/H02] | 100.8%
33 | COc1cccc(C=C2C(=O)Nc3c(Br)cc(Br)c(C)c32)c1O [10723/H03] | 69.2%
34 | Cc1c(Br)cc(Br)c2c1C(=Cc1cc(O)c(O)c(Br)c1)C(=O)N2 [10723/H04] | 95.6%
35 | CC(=O)Oc1ccc(C=C2C(=O)Nc3c(Br)cc(Br)c(C)c32)cc1OC(C)=O [10723/H05] | 64.2%
36 | Cc1cc(C=C2C(=O)Nc3c(Br)cc(Br)c(C)c32)ccc1O [10723/H06] | 44.9%
37 | Cc1c(Br)cc(Br)c2c1C(=Cc1ccccc1Br)C(=O)N2 [10723/H07] | 44.9%
38 | Cc1c(Br)cc(Br)c2c1C(=Cc1ccc(O)cc1O)C(=O)N2 [10723/H08] | 86.2%
39 | COc1ccc(C=C2C(=O)Nc3c(Br)cc(Br)c(C)c32)c(O)c1 [10723/H09] | 62.1%
40 | Cc1c(Br)cc(Br)c2c1C(=Cc1cccc(Br)c1)C(=O)N2 [10723/H10] | 46.4%
41 | Cc1c(Br)cc(Br)c2c1C(=Cc1cc(C(C)(C)C)cc(C(C)(C)C)c1O)C(=O)N2 [10723/H11] | 76.2%
42 | Cc1c(Br)cc(Br)c2c1C(=Cc1ccc(N(C)C)c3ccccc13)C(=O)N2 [10724/H02] | 51.9%
43 | Cc1c(Br)cc(Br)c2c1C(=Cc1ccc(O)c([N+](=O)[O-])c1)C(=O)N2 [10724/H03] | 26.1%
44 | Cc1c(Br)cc(Br)c2c1C(=Cc1ccc([N+](=O)[O-])c(O)c1)C(=O)N2 [10724/H04] | 69.3%
45 | Cc1c(Br)cc(Br)c2c1C(=Cc1cc3c4c(c1O)CCCN4CCC3)C(=O)N2 [10724/H05] | 68.6%
46 | Cc1c(Br)cc(Br)c2c1C(=Cc1cc(C(C)C)c(O)c(C(C)C)c1)C(=O)N2 [10724/H06] | 32.8%

Row | Compound | Met Kinase % Inhibition (P.130)
47 | Cc1c(Br)cc(Br)c2c1C(=Cc1cc3ccccc3o1)C(=O)N2 [10724/H07] | 8.6%
48 | COc1cc(O)c(C=C2C(=O)Nc3c(Br)cc(Br)c(C)c32)c(OC)c1 [10724/H08] | 65.8%
49 | Cc1c(Br)cc(Br)c2c1C(=Cc1cccn1-c1ccc(Cl)cc1)C(=O)N2 [10724/H09] | 4.2%
50 | CCc1ccc(C=C2C(=O)Nc3c(Br)cc(Br)c(C)c32)o1 [10724/H10] | 72.2%
51 | Cc1c(Br)cc(Br)c2c1C(=Cc1sc3scc(C)c3c1C)C(=O)N2 [10724/H11] | 9.8%
52 | Cc1c(Br)cc(Br)c2c1C(=Cc1sccc1Br)C(=O)N2 [10725/H02] | 15.8%
53 | COc1ccc(Br)c(C=C2C(=O)Nc3c(Br)cc(Br)c(C)c32)c1O [10725/H03] | 58.3%
54 | Cc1ccc(C=C2C(=O)Nc3c(Br)cc(Br)c(C)c32)o1 [10725/H04] | 47.1%
55 | Cc1cc(C=C2C(=O)Nc3c(Br)cc(Br)c(C)c32)[nH]n1 [10725/H05] | 20.8%
56 | COc1cc(C)cc(O)c1C=C1C(=O)Nc2c(Br)cc(Br)c(C)c21 [10725/H06] | 33.0%
57 | Cc1c(Br)cc(Br)c2c1C(=Cc1ccc(N3CCN(C=O)CC3)cc1)C(=O)N2 [10725/H07] | 14.2%
58 | Cc1c(Br)cc(Br)c2c1C(=Cc1ccc(N3CCOCC3)cc1)C(=O)N2 [10725/H08] | 5.7%
59 | COC(=O)Cc1c(Cl)[nH]c(C=C2C(=O)Nc3c(Br)cc(Br)c(C)c32)c1C(=O)OC [10725/H09] | 41.6%
60 | Cc1c(Br)cc(Br)c2c1C(=Cc1c(Br)cnn1-c1ccc(Cl)cc1)C(=O)N2 [10725/H10] | 21.8%
61 | Cc1c(Br)cc(Br)c2c1C(=Cc1c[nH]cn1)C(=O)N2 [10725/H11] | 17.8%
62 | Cc1c(Br)cc(Br)c2c1C(=Cc1ccccc1[N+](=O)[O-])C(=O)N2 [10726/H02] | 66.6%
63 | CCOC(=O)c1[nH]c(C=C2C(=O)Nc3c(Br)cc(Br)c(C)c32)c(C(=O)OC)c1C [10726/H03] | 44.8%
64 | Cc1cc(C=C2C(=O)Nc3c(Br)cc(Br)c(C)c32)cc(C(C)(C)C)c1O [10726/H04] | 77.6%
65 | COc1cccc(C=C2C(=O)Nc3ccc(S(=O)(=O)N4CCOCC4)cc32)c1 [10736/F10] | 65.3%
66 | O=C1Nc2ccc(S(=O)(=O)N3CCOCC3)cc2C1=Cc1ccccc1Cl [10736/F11] | 25.2%
67 | O=C1Nc2ccc(CCCl)cc2C1=Cc1ccc(Cl)cc1 [10736/G02] | 48.3%
68 | O=C1Nc2ccc(CCCl)cc2C1=Cc1ccccc1C(F)(F)F [10736/G03] | 0.6%
69 | Cc1cccc(C=C2C(=O)Nc3ccc(CCCl)cc32)c1 [10736/G04] | −6.6%

Same assay, conditions: protocol P.130

Row | Compound | Met Kinase % Inhibition (P.130)
70 | Cc1ccc(C=C2C(=O)Nc3ccc(CCCl)cc32)cc1 [10736/G05] | 0.0% and 1.3%
71 | O=C1Nc2ccc(CCCl)cc2C1=Cc1cccc(F)c1 [10736/G07] | −0.2%
72 | O=C1Nc2ccc(CCCl)cc2C1=Cc1ccccc1F [10736/G08] | 6.6%
73 | CCc1ccc(C=C2C(=O)Nc3ccc(CCCl)cc32)cc1 [10736/G09] | 16.2%
74 | COc1cccc(C=C2C(=O)Nc3ccc(CCCl)cc32)c1 [10736/G10] | 5.7%
75 | O=C1Nc2ccc(CCCl)cc2C1=Cc1ccccc1Cl [10736/G11] | 10.3%
76 | Cc1c(Br)cc(Br)c2c1C(=Cc1ccc(Cl)cc1)C(=O)N2 [10736/H02] | 62.8%
77 | Cc1c(Br)cc(Br)c2c1C(=Cc1ccccc1C(F)(F)F)C(=O)N2 [10736/H03] | 27.7%
78 | Cc1cccc(C=C2C(=O)Nc3c(Br)cc(Br)c(C)c32)c1 [10736/H04] | 27.2%
